Here are results for 21 compounds from patent publication US8148391B2 (Cephalon, Inc., priority 2006, dated 2012).

Assay [1] addresses T1, baculovirus-expressed ALK (Homo sapiens, UniProt Q9UM73).
T1 construct: host or cells: baculovirus expression system
Nature of the assay: ALK Kinase Assay (ELISA-type, time-resolved fluorescence). Format: biochemical. Summed up:
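Plates coated with phospholipase C-γ substrate (10 μg/mL in TBS); reaction started with 30 ng/ml ALK and run 15 min at 37° C. Phosphorylated substrate detected with Eu-N1-labeled PT66 antibody. IC50 from sigmoidal variable-slope fit of percent inhibition vs log concentration.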
In general terms: ELISA stands for enzyme-linked immunosorbent assay.

In assay [2] the target is T2, c-Met (cytoplasmic domain) (Homo sapiens, UniProt P08581).
T2 construct: 10 ng/mL c-Met (cytoplasmic domain, Invitrogen Corporation #PV3143); purchased Invitrogen Corporation PV3143
Nature of the assay: c-Met Kinase Assay (same methods as for ALK, with modifications). It is filed as biochemical. Summed up:
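Europium-labeled PT66 antibody (Eu-N1) detects substrate phosphorylation on wells coated with phospholipase C-γ at 10 μg/mL. The kinase, the cytoplasmic domain of c-Met at 10 ng/mL, starts the reaction, which proceeds 15 minutes at 37° C.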

Setting [3] is: 1 μM ATP (Km level), read-out: ALK Activity (ALK Kinase Inhibition, IC50).
[4] abbreviates: 1 μM ATP (Km level), read-out: cMet Activity (c-Met Kinase Inhibition, IC50).
Setting [5] is: ALK kinase inhibition, 1 μM ATP (Km level), read-out: ALK Activity.
[6] abbreviates: c-Met kinase inhibition, 1 μM ATP (Km level), read-out: cMet Activity.
The mark [7] stands for this setting: 1 μM ATP (Km level), 30 ng/ml ALK, 37° C., 15 minutes, read-out: ALK Activity (ALK kinase inhibition, IC50 class).
[8] abbreviates: 1 μM ATP (Km level), 10 ng/mL c-Met, read-out: cMet Activity (c-Met kinase inhibition, IC50 class).
Where [9] appears, read: ALK kinase inhibition, 1 μM ATP, read-out: ALK Activity.
The mark [10] stands for this setting: c-Met kinase inhibition, 1 μM ATP, read-out: cMet Activity.

Where two headings read alike, the source gives them in different places. Bounds are passed on as bounds.

T1 sequence (Q9UM73 19-1620): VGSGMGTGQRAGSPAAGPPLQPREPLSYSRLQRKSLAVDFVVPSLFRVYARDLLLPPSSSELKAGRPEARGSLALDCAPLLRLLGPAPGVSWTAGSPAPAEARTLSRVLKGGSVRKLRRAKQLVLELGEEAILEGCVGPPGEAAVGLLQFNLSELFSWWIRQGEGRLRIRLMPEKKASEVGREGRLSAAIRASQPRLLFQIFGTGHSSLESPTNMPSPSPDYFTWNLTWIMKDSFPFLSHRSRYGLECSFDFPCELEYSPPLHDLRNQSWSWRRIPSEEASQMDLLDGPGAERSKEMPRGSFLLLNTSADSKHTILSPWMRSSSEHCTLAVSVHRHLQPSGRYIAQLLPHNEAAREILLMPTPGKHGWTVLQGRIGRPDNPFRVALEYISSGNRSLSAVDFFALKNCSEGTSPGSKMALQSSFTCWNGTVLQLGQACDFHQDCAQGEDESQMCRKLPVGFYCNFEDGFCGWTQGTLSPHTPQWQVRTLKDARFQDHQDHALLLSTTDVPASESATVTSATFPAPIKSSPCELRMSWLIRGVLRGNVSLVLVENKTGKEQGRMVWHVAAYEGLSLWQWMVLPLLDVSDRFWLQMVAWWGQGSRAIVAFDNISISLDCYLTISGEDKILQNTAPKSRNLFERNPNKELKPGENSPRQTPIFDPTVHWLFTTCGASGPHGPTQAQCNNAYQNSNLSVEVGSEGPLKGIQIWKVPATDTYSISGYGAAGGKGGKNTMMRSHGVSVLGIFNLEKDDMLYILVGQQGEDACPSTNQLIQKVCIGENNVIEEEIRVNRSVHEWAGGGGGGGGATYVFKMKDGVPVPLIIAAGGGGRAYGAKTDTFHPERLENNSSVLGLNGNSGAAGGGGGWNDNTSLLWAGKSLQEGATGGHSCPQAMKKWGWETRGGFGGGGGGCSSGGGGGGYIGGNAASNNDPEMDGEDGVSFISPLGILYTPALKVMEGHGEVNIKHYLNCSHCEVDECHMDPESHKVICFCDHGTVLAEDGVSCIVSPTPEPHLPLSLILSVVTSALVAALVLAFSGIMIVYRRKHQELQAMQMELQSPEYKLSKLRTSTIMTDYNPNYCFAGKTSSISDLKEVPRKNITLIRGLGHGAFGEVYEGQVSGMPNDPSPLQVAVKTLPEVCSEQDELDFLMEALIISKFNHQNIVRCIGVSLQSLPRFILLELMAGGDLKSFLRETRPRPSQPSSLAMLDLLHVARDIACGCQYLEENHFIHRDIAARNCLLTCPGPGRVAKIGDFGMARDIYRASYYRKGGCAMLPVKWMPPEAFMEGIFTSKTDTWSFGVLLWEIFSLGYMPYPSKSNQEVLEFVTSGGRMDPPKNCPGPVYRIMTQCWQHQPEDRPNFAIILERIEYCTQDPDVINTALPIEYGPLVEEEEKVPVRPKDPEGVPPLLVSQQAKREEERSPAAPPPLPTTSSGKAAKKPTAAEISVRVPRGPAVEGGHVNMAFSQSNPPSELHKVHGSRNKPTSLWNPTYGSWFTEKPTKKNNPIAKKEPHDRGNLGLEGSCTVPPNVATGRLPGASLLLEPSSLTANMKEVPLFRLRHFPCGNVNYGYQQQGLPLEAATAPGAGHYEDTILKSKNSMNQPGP
T2 sequence (P08581 956-1390 limits assumed): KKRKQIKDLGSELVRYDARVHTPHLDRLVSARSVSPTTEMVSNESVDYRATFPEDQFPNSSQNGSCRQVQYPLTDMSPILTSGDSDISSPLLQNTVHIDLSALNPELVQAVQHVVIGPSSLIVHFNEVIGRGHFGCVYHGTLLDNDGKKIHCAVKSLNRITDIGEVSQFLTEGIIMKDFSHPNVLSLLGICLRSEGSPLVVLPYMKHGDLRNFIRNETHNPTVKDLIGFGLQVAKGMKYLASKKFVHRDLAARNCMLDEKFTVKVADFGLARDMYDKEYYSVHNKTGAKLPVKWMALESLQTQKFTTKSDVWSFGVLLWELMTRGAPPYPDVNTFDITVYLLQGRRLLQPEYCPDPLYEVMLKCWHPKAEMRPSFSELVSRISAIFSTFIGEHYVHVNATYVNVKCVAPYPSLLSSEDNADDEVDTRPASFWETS

Consider `COc1cc2c(cc1Nc1ncc(Cl)c(N[C@H]3[C@@H](C(N)=O)[C@@H]4C=C[C@H]3C4)n1)CCN(CC(F)F)CC2` [Example 806, (1S,2S,3R,4R)-3-{5-Chloro-2-[3-(2,2-difluoro-ethyl)-8-methoxy-2,3,4,5-tetrahydro-1H-benzo[d]azepin-7-ylamino]-pyrimidin-4-ylamino}-bicyclo[2.2.1]hept-5-ene-2-carboxylic acid amide], for which the IC50 in assay [1] (setting [3]) was less than 0.1 µM; in assay [2] (setting [4]), more than 10 µM.
As to `CNC(=O)c1ccccc1Nc1nc(Nc2cc3c(cc2OC)C(=O)N(C)CCC3)ncc1Cl` [Example 107, 2-[5-Chloro-2-(8-methoxy-2-methyl-1-oxo-2,3,4,5-tetrahydro-1H-benzo[c]azepin-7-ylamino)-pyrimidin-4-ylamino]-N-methyl-benzamide], the IC50 in assay [1] (setting [5]) was less than 0.1 µM; in assay [2] (setting [6]), 0.1 to 1 µM.
Consider `COCCN1CCc2ccc(Nc3ncc(Cl)c(Nc4ccc(N5CCN(C(C)C)CC5)c5c4C(=O)N(C)C5)n3)cc2CC1` [Example 950, 7-{5-Chloro-2-[3-(2-methoxy-ethyl)-2,3,4,5-tetrahydro-1H-3-benzazepin-7-ylamino]-pyrimidin-4-ylamino}-4-(4-isopropyl-piperazin-1-yl)-2-methyl-2,3-dihydro-isoindol-1-one], for which the IC50 in assay [1] (setting [3]) was less than 0.1 µM; in assay [2] (setting [4]), 0.1 to 1 µM.
As to `CNC(=O)c1cccc(Cl)c1Nc1nc(Nc2ccc3c(c2)C2CCC(C3)N2CCOC)ncc1Cl` (stereo not drawn) [Example 91, 3-Chloro-2-{5-chloro-2-[12-(2-methoxy-ethyl)-12-aza-tricyclo[7.2.1.0*2,7*]dodeca-2(7),3,5-trien-4-ylamino]-pyrimidin-4-ylamino}-N-methyl-benzamide], the values for the IC50 in assay [1] (setting [5]) and in assay [2] (setting [6]) were 0.1 to 1 µM and less than 0.1 µM, respectively.
Regarding `CNC(=O)c1ccccc1Nc1nc(Nc2ccc3c(c2)CCC(NCC(F)(F)F)CC3)ncc1Cl` (stereo not drawn) [Example 651, 2-{5-Chloro-2-[7-(2,2,2-trifluoro-ethylamino)-6,7,8,9-tetrahydro-5H-benzocyclohepten-2-ylamino]-pyrimidin-4-ylamino}-N-methyl-benzamide], the IC50 in assay [1] (setting [3]) and in assay [2] (setting [4]) was less than 0.1 µM in each case.
With `CC(=O)OCCN1CCN(C)c2cc(Nc3ncc(Cl)c(N[C@@H]4CCCC[C@H]4NS(C)(=O)=O)n3)ccc2C1` [Example 476, Acetic acid 2-{8-[5-chloro-4-((1R,2R)-2-methanesulfonylamino-cyclohexylamino)-pyrimidin-2-ylamino]-1-methyl-1,2,3,5-tetrahydro-benzo[e][1,4]diazepin-4-yl}-ethyl ester], the IC50 was less than 0.1 µM in assay [1] (setting [5]) and 1 to 10 µM in assay [2] (setting [6]).
As for `COc1c(Nc2ncc(Cl)c(N[C@H]3[C@@H](C(N)=O)[C@@H]4C=C[C@H]3C4)n2)ccc2c1CCC(NCC(F)(F)F)CC2` (stereo partly drawn) [Example 679, (1S,2S,3R,4R)-3-{5-Chloro-2-[1-methoxy-7-(2,2,2-trifluoro-ethylamino)-6,7,8,9-tetrahydro-5H-benzocyclohepten-2-ylamino]-pyrimidin-4-ylamino}-bicyclo[2.2.1]hept-5-ene-2-carboxylic acid amide], the figures for the IC50 in assay [1] (setting [3]) and in assay [2] (setting [4]) were less than 0.1 µM and more than 10 µM, respectively.
In the case of `CCN1C(=O)CCCc2ccc(Nc3ncc(Cl)c(Nc4cccc(CCC#N)c4)n3)cc21` [Example 1223, 3-{3-[5-Chloro-2-(1-ethyl-2-oxo-2,3,4,5-tetrahydro-1H-1-benzazepin-8-ylamino)-pyrimidin-4-ylamino]-phenyl}-propionitrile], the IC50 in assay [1] (setting [7]) and in assay [2] (setting [8]) was 0.1 to 1 µM throughout.
`COc1cc2c(cc1Nc1ncc(Cl)c(Nc3ccccc3S(=O)(=O)N(C)C)n1)CCN(CCOC(=O)CN)CC2` [Example 1542, Amino-acetic acid 2-{7-[5-chloro-4-(2-dimethylsulfamoyl-phenylamino)-pyrimidin-2-ylamino]-8-methoxy-1,2,4,5-tetrahydro-benzo[d]azepin-3-yl}-ethyl ester]: the IC50 was less than 0.1 µM in assay [1] (setting [9]) and 1 to 10 µM in assay [2] (setting [10]).
Take “3-{2-[2-(1-Acetyl-4-oxo-1,2,3,4,5,6-hexahydro-1,5-benzodiazepin-8-ylamino)-5-chloro-pyrimidin-4-ylamino]-phenoxy}-propionitrile [Example 1237]”: the IC50 in assay [1] (setting [7]) is less than 0.1 µM; in assay [2] (setting [8]) it was 0.1 to 1 µM.
As for `CCN1C(=O)C(NC(=O)C(F)(F)F)CCc2c1ccc(Nc1ncc(Cl)c(N[C@H]3[C@@H](C(N)=O)[C@@H]4C=C[C@H]3C4)n1)c2OC` (stereo partly drawn) [Example 1330, (1S,2S,3R,4R)-3-{5-Chloro-2-[1-ethyl-6-methoxy-2-oxo-3-(2,2,2-trifluoro-acetylamino)-2,3,4,5-tetrahydro-1H-benzo[b]azepin-7-ylamino]-pyrimidin-4-ylamino}-bicyclo[2.2.1]hept-5-ene-2-carboxylic acid amide], the IC50 in assay [1] (setting [7]) was less than 0.1 µM; in assay [2] (setting [8]), more than 10 µM.
For `CCN1CCCOc2cc(Nc3ncc(Cl)c(N[C@@H]4CCCC[C@H]4NS(C)(=O)=O)n3)c(F)cc21` [Example 1687, N-{(1R,2R)-2-[5-Chloro-2-(9-ethyl-2-fluoro-6,7,8,9-tetrahydro-5-oxa-9-aza-benzocyclohepten-3-ylamino)-pyrimidin-4-ylamino]-cyclohexyl}-methanesulfonamide], the IC50 in assay [1] (setting [9]) is less than 0.1 µM; in assay [2] (setting [10]), 1 to 10 µM.
In the case of `CC1(C)CCC(=O)Nc2ccc(Nc3ncc(Cl)c(Nc4ccccc4-n4cccn4)n3)cc21` [Example 398, 7-[5-Chloro-4-(2-pyrazol-1-yl-phenylamino)-pyrimidin-2-ylamino]-5,5-dimethyl-1,3,4,5-tetrahydro-benzo[b]azepin-2-one], the IC50 in assay [1] (setting [5]) was less than 0.1 µM; in assay [2] (setting [6]) it was more than 10 µM.
On to `COc1cc2c(cc1Nc1ncc(Cl)c(Nc3c(OC)ccc4c3CN(S(C)(=O)=O)CC(=O)N4)n1)CCN(CC(=O)N(C)C)CC2` [Example 751, 2-{7-[5-Chloro-4-(4-methanesulfonyl-7-methoxy-2-oxo-2,3,4,5-tetrahydro-1H-benzo[e][1,4]diazepin-6-ylamino)-pyrimidin-2-ylamino]-8-methoxy-1,2,4,5-tetrahydro-benzo[d]azepin-3-yl}-N,Ndimethyl-acetamide], for which the IC50 in assay [1] (setting [3]) was 1 to 10 µM; in assay [2] (setting [4]), more than 10 µM.
Consider `CNC(=O)c1ccccc1Nc1nc(Nc2ccc3c(c2Cl)C2CCC(C3)N2CCOC)ncc1Cl` (stereo not drawn) [Example 87, 2-{5-Chloro-2-[3-chloro-12-(2-methoxy-ethyl)-12-aza-tricyclo[7.2.1.0*2,7*]dodeca-2(7),3,5-trien-4-ylamino]-pyrimidin-4-ylamino}-N-methyl-benzamide], for which the IC50 was less than 0.1 µM in assay [1] (setting [5]) and 0.1 to 1 µM in assay [2] (setting [6]).
`Clc1cnc(Nc2ccc3c(c2)CCC(N2CCOCC2)CC3)nc1Nc1ccccc1-n1cccn1` (stereo not drawn) [Example 1034, 5-Chloro-N*2*-(7-morpholin-4-yl-6,7,8,9-tetrahydro-5H-benzocyclohepten-2-yl)-N*4*-(2-pyrazol-1-yl-phenyl)-pyrimidine-2,4-diamine]: the IC50 in assay [1] (setting [7]) is less than 0.1 µM; in assay [2] (setting [8]) it was 0.1 to 1 µM.
For the compound `CNC(=O)c1cc(OC)ccc1Nc1nc(Nc2ccc3c(c2)C(C)(C)CCC(=O)N3)ncc1Cl` [Example 609, 2-[5-Chloro-2-(5,5-dimethyl-2-oxo-2,3,4,5-tetrahydro-1H-benzo[b]azepin-7-ylamino)-pyrimidin-4-ylamino]-5-methoxy-N-methyl-benzamide], the figures for the IC50 in assay [1] (setting [3]) and in assay [2] (setting [4]) were less than 0.1 µM and 0.1 to 1 µM, respectively.
As to `COCCN1CCc2ccc(Nc3ncc(Cl)c(N[C@@H]4[C@H](C(N)=O)[C@@H]5C=C[C@H]4C5)n3)cc2CC1` (relative stereo) [Example 459, (2-endo, 3-endo)-3-{5-Chloro-2-[3-(2-methoxy-ethyl)-2,3,4,5-tetrahydro-1H-benzo[d]azepin-7-ylamino]-pyrimidin-4-ylamino}-bicyclo[2.2.1]hept-5-ene-2-carboxylic acid amide], the IC50 is less than 0.1 µM in assay [1] (setting [5]) and 1 to 10 µM in assay [2] (setting [6]).
As for `CNC(=O)c1cccc(F)c1Nc1nc(Nc2ccc3c(c2)N(C(C)C)CCCC3(C)C)ncc1Cl` [Example 1626, 2-[5-Chloro-2-(1-isopropyl-5,5-dimethyl-2,3,4,5-tetrahydro-1H-benzo[b]azepin-8-ylamino)-pyrimidin-4-ylamino]-3-fluoro-N-methyl-benzamide], the IC50 in assay [1] (setting [9]) and in assay [2] (setting [10]) was 0.1 to 1 µM each time.
`CN([C@@H]1CCCC[C@H]1Nc1nc(Nc2ccc3c(c2)CCC(N2CCOCC2)CC3)ncc1Cl)S(C)(=O)=O` (mixture of isomers) [Example 1681, N-{(1R,2R)-2-[5-Chloro-2-(7-morpholin-4-yl-6,7,8,9-tetrahydro-5H-benzocyclohepten-2-ylamino)-pyrimidin-4-ylamino]-cyclohexyl}-N-methyl-methanesulfonamide]: the results for the IC50 in assay [1] (setting [9]) and in assay [2] (setting [10]) were less than 0.1 µM and 1 to 10 µM, respectively.
Consider `O=C1Cc2ccc(Nc3ncc(Cl)c(Nc4ccccc4-n4cccn4)n3)cc2CCN1` [Example 1813, 7-[5-Chloro-4-(2-pyrazol-1-yl-phenylamino)-pyrimidin-2-ylamino]-1,3,4,5-tetrahydro-benzo[d]azepin-2-one], for which the results for the IC50 in assay [1] (setting [9]) and in assay [2] (setting [10]) were 1 to 10 µM and less than 0.1 µM, respectively.
